Results on 79 compounds are retold here after the METLIN SMRT retention time set (Domingo-Almenara et al. 2019).

This data set is described as follows: gradient 5% acetonitrile 3 min, to 50% in 2 min, to 85% in 15 min, held 3 min, 100 µL/min. The settings on record: column: Zorbax Extend-C18 2.1 x 50 mm; eluents: water / acetonitrile, 0.1% formic acid. The method, boiled down: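 Values are retention times taken from adduct peaks that software picked and an analyst inspected. The pure standards were run as mixtures of ~100 molecules on HPLC linked to a quadrupole time-of-flight mass spectrometer, in positive and negative ionization mode. A Zorbax Extend-C18 column (2.1 × 50 mm, 1.8 μm) was used at 100 μL/min with water and acetonitrile, each including 0.1% formic acid.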
Take `Cc1nc(-c2noc(-c3ccncc3)n2)cn1CC(=O)NCc1ccc(Cl)cc1`: the RP-LC retention time is 683 s.

In turn, `O=C(Nc1nc2ccccc2s1)C1CCN(C(=O)c2ccccc2Cl)CC1` showed an RP-LC retention time of 829 s.

In the case of `CCOc1ccc(CNC(=O)CN2CC=C(c3cnn(-c4ccccc4)c3)CC2)cc1`, the RP-LC retention time came out at 722 s.

`Cc1ccccc1NS(=O)(=O)c1cccc(-c2nc(-c3ccccc3)no2)c1` had an RP-LC retention time of 1160 s.

For `COc1ccc(S(=O)(=O)N2CCCN(c3ccc(=O)n(-c4ccccc4)n3)CC2)cc1`, the RP-LC retention time turned out to be 822 s.

On to `CCc1nnc(-c2ccc3ccn(CC(=O)N4CCN(c5ccc(Cl)cc5)CC4)c3c2)o1`, for which the RP-LC retention time came to 965 s.

`CCCNC(=O)CCC1CCN(c2cc(NCCC)ncn2)CC1` showed an RP-LC retention time of 606 s.

`COc1cc(OC)cc(C(=O)Nc2nc3c(s2)Cc2c(Br)ccc(OC)c2-3)c1` yielded an RP-LC retention time of 1210 s.

`O=C(NC1(c2nc(-c3ccccc3)no2)CCCCC1)c1ccccc1F`: the RP-LC retention time was 1100 s.

Consider `O=C(Nc1ccc(F)c(Cl)c1)Nc1nccn(-c2ccc3c(c2)CCC3)c1=O`, for which the RP-LC retention time came out at 1180 s.

The compound `N#Cc1ccc(-c2nc(-c3ccc4c(c3)ncn4CCN3CCCCC3)no2)cc1` gave an RP-LC retention time of 632 s.

Compound `O=C(CN1CCN(C(=O)c2cnn3c(-c4ccc5c(c4)OCO5)ccnc23)CC1)N1CCCCC1` registered an RP-LC retention time of 611 s.

The compound `CCCc1cc(C2CCCN2C(=O)Nc2ccccc2C)no1` (centres undefined) came in with an RP-LC retention time of 902 s.

Compound `COc1cccc(Cn2cccc(S(=O)(=O)N3CCCC3)c2=O)c1` had an RP-LC retention time of 807 s.

Compound `Cc1cc(C)c2c(N3CCSCC3)nc(C(=O)NC(C)c3ccccn3)nc2n1` (centres undefined) registered an RP-LC retention time of 618 s.

The compound `Cc1nc(-c2csc(S(=O)(=O)N3CCCC(C(=O)Nc4ccc(C)c(C)c4)C3)c2)no1` (centres undefined) came in with an RP-LC retention time of 939 s.

`Cc1c(Cl)cccc1Nc1c(-c2cccc(Cl)c2)nc2cnccn12` came in with an RP-LC retention time of 1140 s.

In turn, `CCOc1ncccc1CNC(=O)c1ccc2nc[nH]c2c1` yielded an RP-LC retention time of 569 s.

For `CCCn1cc(S(=O)(=O)NCc2ccccc2OC)c2cccnc21`, the RP-LC retention time stood at 890 s.

In turn, `Cc1onc(-c2ccc(Br)s2)c1C(=O)NCCCN1CCN(C)CC1` gave an RP-LC retention time of 611 s.

Turning to `Cc1cc(NC(=O)C2CCN(C(=O)c3ncn4c3COC(c3ccc(F)cc3)C4)CC2)ccc1F` (centres undefined), the RP-LC retention time stood at 839 s.

On to `Cn1nccc1C(=O)Nc1ccc(OCc2nnc(-c3ccccc3)o2)cc1`, for which the RP-LC retention time was found to be 786 s.

The compound `Cc1ccc(CNC(=O)C2CCN(S(=O)(=O)c3ccc4c(c3)NC(=O)CO4)CC2)o1` displayed an RP-LC retention time of 715 s.

In turn, `Cc1nnc([C@@H]2CC(F)(F)CN2C(=O)c2n[nH]c3ccccc23)o1` gave an RP-LC retention time of 666 s.

The compound `CCn1cc(-c2nc(C)c(C(=O)N3CCc4ccccc43)s2)c2cccnc21` showed an RP-LC retention time of 1030 s.

For `Cn1nccc1-c1cccc(-c2noc(/C=C/c3ccccc3Cl)n2)c1`, the RP-LC retention time came to 1290 s.

`COc1ccccc1NC(=O)c1c(NC(=O)C(C)C)sc2c1CCC2` came in with an RP-LC retention time of 815 s.

`Cc1ccc(-n2ccc(=O)c(-c3nc(-c4ccccc4Cl)no3)n2)cc1` displayed an RP-LC retention time of 958 s.

In turn, `CCOc1ccc(S(=O)(=O)N2CCC(C(=O)N3CCN(C)CC3)CC2)cc1C` gave an RP-LC retention time of 654 s.

On to `Cc1ccc(C)c(NC(=O)N2CCC(c3nc(C(=O)N(C)C)c(C)o3)CC2)c1`, for which the RP-LC retention time is 711 s.

Take `CN1CCC(NC(=O)C2CCN(C(=O)c3ncn4c3COC(c3ccc(F)cc3)C4)CC2)CC1` (centres undefined): the RP-LC retention time is 599 s.

Consider `Cc1ccc(C(=O)NCCc2nc3cccnc3n2C)s1`, for which the RP-LC retention time was 596 s.

In turn, `O=c1n(Cc2cccc(Br)c2)nc2c(S(=O)(=O)N3CCCCC3)cccn12` displayed an RP-LC retention time of 941 s.

`O=C(Nc1nc(-c2ccc(F)cc2)cs1)C1CC1` returned an RP-LC retention time of 884 s.

The compound `CCOC(=O)c1c(C)c(CCC(=O)N2CCN(c3ccccn3)CC2)c(C)n1C` came in with an RP-LC retention time of 646 s.

`COC(=O)Cn1c(C2CC(=O)N(c3cccc(OC)c3)C2)nc2ccccc21` (centres undefined) displayed an RP-LC retention time of 718 s.

With `O=C1COc2cc(S(=O)(=O)N3CCCC3C(=O)NCCN3CCCCCC3)c(Cl)cc2N1` (centres undefined), the RP-LC retention time amounted to 587 s.

Turning to `O=c1cc(CSc2nnc(-c3ccc4c(c3)OCO4)o2)nc2sccn12`, the RP-LC retention time stood at 727 s.

Turning to `O=C(CSc1nnc(NC(=O)c2ccc(Br)o2)s1)NCC1CCCO1` (centres undefined), the RP-LC retention time was 648 s.

As for `Cc1ccc(Nc2c(-c3c(F)cccc3Cl)nc3cccc(C)n23)cc1`, the RP-LC retention time is 763 s.

The compound `COCCN1C(=O)c2ccccc2C(C(=O)NCc2ccc(OC)cc2)C12CCCC2` (centres undefined) had an RP-LC retention time of 785 s.

`COc1cc(NC(=O)CN2C(=O)C(O)(c3cccc(F)c3)c3ccccc32)cc(OC)c1` (centres undefined) registered an RP-LC retention time of 894 s.

Compound `CCN(CC)S(=O)(=O)c1ccc2c(c1)cc(C(=O)NCCCN1CCCC(C)C1)n2C` (centres undefined) gave an RP-LC retention time of 691 s.

Compound `CC(C)CC(=O)Nc1ccc(-c2nc(-c3ccc(F)cc3)no2)cc1` came in with an RP-LC retention time of 1170 s.

Compound `Cc1ccc(-c2cc3c(N4CCCC(C(=O)NC5CCCCC5)C4)nccn3n2)c(C)c1` (centres undefined) displayed an RP-LC retention time of 1010 s.

`COc1cccc(NC(=O)c2[nH]c3cc(C)sc3c2CN2CCOCC2)c1` had an RP-LC retention time of 685 s.

With `O=C(NCc1cccnc1)C1CCCN(S(=O)(=O)c2cc(-c3noc(C4CCC4)n3)cs2)C1` (centres undefined), the RP-LC retention time is 825 s.

`CCc1ccc(CNC(=O)C2(CC)CCCCC(=O)N2)cc1` (centres undefined) displayed an RP-LC retention time of 771 s.

The compound `Cc1ccc(C)c(NC(=O)Cn2c(N3CCCCC3)nc(C)cc2=O)c1` gave an RP-LC retention time of 688 s.

Turning to `Cc1noc2nc(CCC(=O)NCc3ccc(F)cc3Cl)nc(N3CCOCC3)c12`, the RP-LC retention time worked out at 666 s.

Regarding `CCc1nnc2ccc(NC(C)C)nn12`, the RP-LC retention time was determined as 718 s.

As for `Cc1ccn2cc(-c3ccc(NS(=O)(=O)c4cccc(F)c4)cc3)nc2n1`, the RP-LC retention time amounted to 651 s.

Compound `N#Cc1cccc(NC(=O)N2CCC(c3cc(N)on3)CC2)c1` came in with an RP-LC retention time of 660 s.

Regarding `COc1ccc(C(=O)N2CC(N3CC(C(=O)N4CCCC4)CC3=O)C2)cc1F` (centres undefined), the RP-LC retention time is 639 s.

Take `CN(c1ccccc1)c1nc(=O)n(CC(=O)Nc2ccc3c(c2)OCO3)c2ccccc12`: the RP-LC retention time turned out to be 800 s.

For the compound `Cc1cc(C(=O)N(C)C)c(C)n1-c1ccc(O)cc1`, the RP-LC retention time was 661 s.

On to `Cc1ccc(NC(=O)Cn2ncc3c(c2=O)N(C2CC2)C(=O)CS3)cc1C`, for which the RP-LC retention time came out at 732 s.

The compound `O=C(c1ccccn1)N1CCC(n2nc(-c3ccsc3)ccc2=O)CC1` returned an RP-LC retention time of 641 s.

In the case of `Cc1ccc2ncn3c(=O)n(CC(=O)Nc4ccc5c(c4)OCO5)nc3c2c1`, the RP-LC retention time came to 673 s.

Compound `O=C(/C=C\c1ccccc1)Nc1ccc(-c2cn3cccnc3n2)cc1` registered an RP-LC retention time of 683 s.

Compound `CCCCN(C)C(=O)c1sc(Nc2ccccn2)nc1C` returned an RP-LC retention time of 777 s.

With `CC(C(=O)Nc1ccc(F)cc1)C1CCN(C(=O)Nc2ccc(F)cc2)CC1` (centres undefined), the RP-LC retention time stood at 834 s.

With `Cc1cc(N2CCOCC2)nc(N2CCN(C(=O)C3CCCCC3)CC2)n1`, the RP-LC retention time was 625 s.

Consider `Clc1cccc(-c2nnc(-c3nc(N4CCOCC4)c4ccccc4n3)o2)c1`, for which the RP-LC retention time amounted to 973 s.

The compound `CC(C)c1ccc(-c2noc(N3CCC(C(=O)N4CCN(C5CCCCC5)CC4)CC3)n2)cc1` registered an RP-LC retention time of 814 s.

`O=C(Cn1cccc(-c2nc(-c3ccc(F)cc3)no2)c1=O)NCc1ccccc1Br` showed an RP-LC retention time of 898 s.

`C[C@@H]1CN(C(=O)NC2CCCC2)C[C@H]1c1nc(-c2ccncc2)no1` returned an RP-LC retention time of 671 s.

In turn, `Cc1nc(COc2ccccc2)sc1C(=O)N1CCC(C(N)=O)CC1` yielded an RP-LC retention time of 925 s.

As to `Cc1cnn(Cc2cc(C(=O)N3C[C@@H](CO)[C@H](N(C)C)C3)no2)c1`, the RP-LC retention time came to 566 s.

Compound `COC1CCC12CCN(C(=O)c1ccc(Cc3c(C)n[nH]c3C)o1)CC2` (centres undefined) showed an RP-LC retention time of 656 s.

With `CC(C)(C)NC(=O)N1CCC(CNC(=O)c2cccs2)CC1`, the RP-LC retention time is 655 s.

The compound `COCCCNC(=O)C1(C)Cn2nc(-c3ccccc3)cc2C(=O)N1Cc1cccc(OC)c1` (centres undefined) came in with an RP-LC retention time of 887 s.

`Cc1ccccc1NC(=O)N1CCCC1c1cc(C(C)C)on1` (centres undefined) registered an RP-LC retention time of 890 s.

`O=C(Cn1cnc2nc(N3CCCC(C(=O)NC4CC4)C3)sc2c1=O)NC1CCCC1` (centres undefined) showed an RP-LC retention time of 628 s.

Regarding `Cc1ccc(C)c(CNC(=O)c2cc(-c3ccncc3)cn2C)c1`, the RP-LC retention time is 679 s.

Regarding `O=C(Cn1ccn2nc(-c3ccccc3)c(CO)c2c1=O)Nc1cc(F)ccc1Cl`, the RP-LC retention time worked out at 868 s.

Consider `COc1ccc(Cc2nn3c(CSc4ccccc4)nnc3s2)cc1OC`, for which the RP-LC retention time worked out at 865 s.

In the case of `CCOc1ccccc1NC(=O)C1CCCN(c2nc3c(s2)c(C)nn3-c2ccc(C)cc2)C1` (centres undefined), the RP-LC retention time came to 1360 s.

Consider `O=S(=O)(c1ccc2nc(N3CCN(c4ccc(F)cc4)CC3)ccc2c1)N1CCCC1`, for which the RP-LC retention time amounted to 951 s.
